Test results reported in US20220089609A1, “SUBSTITUTED QUINAZOLINONE DERIVATIVES AND THEIR USE AS POSITIVE ALLOSTERIC MODULATORS OF MGLUR4” (DOMAIN THERAPEUTICS, priority 2018, published 2022).
Structures can show the parent of a compound that is named as a salt.

Each molecule was assayed against T1, human mGluR4 (hmGluR4) (Homo sapiens, UniProt Q14833) (assay: Calcium assay EC50 determination, positive allosteric modulator activity on hmGluR4 transiently over-expressed in HEK-293 cells). Details: PAM mode with EC20 glutamate; hmGluR4 in HEK-293 cells; intracellular calcium (Fluo4AM); read-out: mGluR4 positive allosteric modulator activity, half maximal effective concentration (EC50).
T1 construct: expressed in transfected cells; host or cells: HEK-293 cells, transient co-transfection by electroporation
Assay type: cell-based
Experimental: Compounds are tested successively for their agonist and positive allosteric modulator activities on human mGluR4 (hmGluR4) transiently over-expressed in HEK-293 cells. Compounds exert agonist activity if, by themselves in absence of glutamate, they are able to activate hmGluR4; and they exert positive allosteric modulator activity if they increase the action of glutamate.
HEK-293 cells are maintained in Modified Eagle's Medium supplemented with 10% Foetal Calf Serum, 1% Penicillin/Streptomycin and 1% non-essential amino acids at 37° C./5% CO2.
Cells are co-transfected by electroporation with four DNA plasmids encoding hmGluR4, a chimeric G protein allowing redirection of the activation signal to intracellular calcium pathway, and glutamate transporters to decrease extracellular glutamate concentration so as to limit receptor desensitization. After transfection, cells are cultured for 24 h at 37° C./5% CO2.
Calcium Assay EC50 determination
Receptor activity is detected by changes in intracellular calcium measured using the fluorescent Ca^2+ sensitive dye, Fluo4AM (Molecular Probes).
On the day of the assay, culture medium is aspirated and replaced during 3 hours by medium without serum supplemented with 1% Glutamax, 1% Penicillin/Streptomycin and 1% non-essential amino acids. Then, cells are washed with freshly prepared buffer B (HBSS 1× (PAA), Hepes 20 mM, MgSO4-7H2O 1 mM, Na2CO3 3.3 mM, CaCl2-2H2O 1.3 mM, 0.1% BSA, Probenecid 2.5 mM) and loaded at 37° C. in 5% CO2 for 1.5 hours with buffer B containing 1 μM Fluo4AM, 0.1 mg/mL Pluronic Acid, 7 μg/mL Glutamate Pyruvate Transaminase and 2 mM sodium pyruvate. Afterwards cells are washed twice with buffer B. Then cells are detached using StemPro Accutase (Fisher Scientific), resuspended in buffer B and seeded in 384 well plate at a density of 30,000 cells per well. Addition of compounds and intracellular Ca^2+ measurements (excitation 485 nm, emission 525 nm) are performed by the fluorescence microplate reader FLIP^Tetra (Molecular Devices).
Agonist and positive allosteric modulator activities of compounds are consecutively evaluated on the same cell plate. Agonist activity is first tested during 10 minutes with the addition of compound alone on the cells. Then, cells are stimulated by an EC20 glutamate concentration and fluorescence is recorded for additional 3 minutes. EC20 glutamate concentration is the concentration giving 20% of the maximal glutamate response. Agonist or positive allosteric modulator activity(ies) are evaluated in comparison to basal signals evoked by buffer B or EC20 glutamate alone, respectively.

T1 sequence (Q14833 33-912): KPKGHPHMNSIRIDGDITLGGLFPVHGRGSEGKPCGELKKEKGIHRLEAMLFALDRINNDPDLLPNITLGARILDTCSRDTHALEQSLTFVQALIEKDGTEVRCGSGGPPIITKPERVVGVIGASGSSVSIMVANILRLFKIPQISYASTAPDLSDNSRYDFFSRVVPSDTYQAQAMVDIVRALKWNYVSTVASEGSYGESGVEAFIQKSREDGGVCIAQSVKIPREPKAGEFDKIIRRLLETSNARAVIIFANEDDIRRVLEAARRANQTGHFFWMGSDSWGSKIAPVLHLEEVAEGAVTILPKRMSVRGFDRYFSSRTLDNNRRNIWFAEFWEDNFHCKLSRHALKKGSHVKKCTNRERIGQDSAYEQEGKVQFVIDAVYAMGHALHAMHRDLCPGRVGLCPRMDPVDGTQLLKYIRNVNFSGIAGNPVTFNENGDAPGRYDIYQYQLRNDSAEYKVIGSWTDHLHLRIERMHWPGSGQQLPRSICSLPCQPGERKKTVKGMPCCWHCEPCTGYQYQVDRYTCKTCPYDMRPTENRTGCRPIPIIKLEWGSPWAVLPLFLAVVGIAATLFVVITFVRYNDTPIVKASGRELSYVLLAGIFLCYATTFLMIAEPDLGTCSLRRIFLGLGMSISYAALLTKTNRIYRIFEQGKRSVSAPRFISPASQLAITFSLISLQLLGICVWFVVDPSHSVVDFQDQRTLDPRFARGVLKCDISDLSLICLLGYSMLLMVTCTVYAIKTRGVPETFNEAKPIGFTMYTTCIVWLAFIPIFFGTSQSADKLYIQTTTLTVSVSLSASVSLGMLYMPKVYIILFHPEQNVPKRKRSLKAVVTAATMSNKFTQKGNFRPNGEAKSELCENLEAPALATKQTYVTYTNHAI

Cc1cc(N2CCC3(CCCOC3)C2)cc2c(=O)[nH]c(-c3cc4ccsc4cn3)nc12 (stereo not drawn) [Compound 92, 8-Methyl-6-(7-oxa-2-aza-spiro[4.5]dec-2-yl)-2-thieno[2,3-c]pyridin-5-yl-3H-quinazolin-4-one] and Cc1cc(N2CCC3(CCOCC3)C2)cc2c(=O)[nH]c(-c3cc4ccsc4cn3)nc12 [Compound 93, 8-Methyl-6-(8-oxa-2-aza-spiro[4.5]dec-2-yl)-2-thieno[2,3-c]pyridin-5-yl-3H-quinazolin-4-one] cannot be ordered by EC50: at most 0.1 µM for the first, at most 0.1 µM for the second.

Compared with Cc1cc(NCC(C)(C)O)cc2c(=O)[nH]c(-c3cc4ccsc4cn3)nc12 [Compound 94, 6-(2-Hydroxy-2-methyl-propylamino)-8-methyl-2-thieno[2,3-c]pyridin-5-yl-3H-quinazolin-4-one], Cc1cc(CN2CCN(C)CC2)cc2c(=O)[nH]c(-c3cc4ccsc4cn3)nc12 [Compound 132, 8-Methyl-6-[(4-methylpiperazin-1-yl)methyl]-2-thieno[2,3-c]pyridin-5-yl-3H-quinazolin-4-one dihydrochloride] is higher in EC50: 0.1 to 1 µM for the first, 1 to 10 µM for the second. The first is the more potent here.

CC(=O)N1CCCC(CCOc2cc(C)c3nc(-c4cc5ccsc5cn4)[nH]c(=O)c3c2)C1 (stereo not drawn) [Compound 96, 6-[2-(1-Acetyl-piperidin-3-yl)-ethoxy]-8-methyl-2-thieno[2,3-c]pyridin-5-yl-3H-quinazolin-4-one] and CC(=O)N1CCN(CCOc2cc(C)c3nc(-c4cc5ccsc5cn4)[nH]c(=O)c3c2)CC1 [Compound 97, 6-[2-(4-acetyl-piperazin-1-yl)-ethoxy]-8-methyl-2-thieno[2,3-c]pyridin-5-yl-3H-quinazolin-4-one hydrochloride] cannot be ordered by EC50: at most 0.1 µM for the first, 0.1 to 1 µM for the second.

Cc1cc(CCCN2CCOCC2)cc2c(=O)[nH]c(-c3cc4ccsc4cn3)nc12 [Compound 99, 8-Methyl-6-(3-morpholin-4-yl-propyl)-2-thieno[2,3-c]pyridin-5-yl-3H-quinazolin-4-one hydrochloride] and Cc1cc(CCN2CCCOCC2)cc2c(=O)[nH]c(-c3cnc4sccc4c3)nc12 [Compound 121, 8-Methyl-6-(2-[1,4]oxazepan-4-yl-ethyl)-2-thieno[2,3-b]pyridin-5-yl-3H-quinazolin-4-one hydrochloride] fall in the same range of EC50: 0.1 to 1 µM for the first, 0.1 to 1 µM for the second.

Cc1cc(OCCCc2ccncc2)cc2c(=O)[nH]c(-c3cc(C(F)(F)F)ccn3)nc12 [Compound 101, 8-Methyl-6-(3-pyridin-4-yl-propoxy)-2-(4-trifluoromethyl-pyridin-2-yl)-3H-quinazolin-4-one hydrochloride] and Cc1cc(OCCCc2ccncc2)cc2c(=O)[nH]c(-c3cc4cccn4cn3)nc12 [Compound 106, 8-methyl-6-(3-pyridin-4-yl-propoxy)-2-pyrrolo[1,2-c]pyrimidin-3-yl-3H-quinazolin-4-one hydrochloride] cannot be ordered by EC50: 0.1 to 1 µM for the first, at most 0.1 µM for the second.

Cc1cc(OCC2CCOC2)cc2c(=O)[nH]c(-c3cc(C(F)(F)F)ccn3)nc12 (stereo not drawn) [Compound 102, 8-Methyl-6-(tetrahydro-furan-3-ylmethoxy)-2-(4-trifluoromethyl-pyridin-2-yl)-3H-quinazolin-4-one] and Cc1cc(O[C@H](C)C2CCOCC2)cc2c(=O)[nH]c(-c3cc(C(F)(F)F)ccn3)nc12 [Compound 111-R, R-8-Methyl-6-[1-(tetrahydro-pyran-4-yl)-ethoxy]-2-(4-trifluoromethyl-pyridin-2-yl)-3H-quinazolin-4-one] cannot be ordered by EC50: at most 0.1 µM for the first, 0.1 to 1 µM for the second.

CCC(=O)N1CC(Oc2cc(C)c3nc(-c4cc(C(F)(F)F)ccn4)[nH]c(=O)c3c2)C1 [Compound 103, 8-Methyl-6-(1-propionyl-azetidin-3-yloxy)-2-(4-trifluoromethyl-pyridin-2-yl)-3H-quinazolin-4-one] and Cc1cc(OC2CCN(C3COC3)CC2)cc2c(=O)[nH]c(-c3cc(C(F)(F)F)ccn3)nc12 [Compound 104, 8-Methyl-6-(1-oxetan-3-yl-piperidin-4-yloxy)-2-(4-trifluoromethyl-pyridin-2-yl)-3H-quinazolin-4-one] fall in the same range of EC50: 0.1 to 1 µM for the first, 0.1 to 1 µM for the second.

Cc1cc(N2CCC3(CCOCC3)CC2)cc2c(=O)[nH]c(-c3cc(C(F)(F)F)ccn3)nc12 [Compound 105, 8-Methyl-6-(3-oxa-9-aza-spiro[5.5]undec-9-yl)-2-(4-trifluoromethyl-pyridin-2-yl)-3H-quinazolin-4-one] and Cc1cc(N2CCC3(CCOCC3)CC2)cc2c(=O)[nH]c(-c3cc4cccn4cn3)nc12 [Compound 108, 8-methyl-6-(3-oxa-9-aza-spiro[5.5]undec-9-yl)-2-pyrrolo[1,2-c]pyrimidin-3-yl-3H-quinazolin-4-one] cannot be ordered by EC50: at most 0.1 µM for the first, at most 0.1 µM for the second.

Cc1cc(OCC2CCOC2)cc2c(=O)[nH]c(-c3cc4cccn4cn3)nc12 (stereo not drawn) [Compound 107, 8-methyl-2-pyrrolo[1,2-c]pyrimidin-3-yl-6-(tetrahydro-furan-3-ylmethoxy)-3H-quinazolin-4-one] and Cc1cc(OC2CCN(C3COC3)CC2)cc2c(=O)[nH]c(-c3cc4cccn4cn3)nc12 [Compound 109, 8-methyl-6-(1-oxetan-3-yl-piperidin-4-yloxy)-2-pyrrolo[1,2-c]pyrimidin-3-yl-3H-quinazolin-4-one] cannot be ordered by EC50: at most 0.1 µM for the first, at most 0.1 µM for the second.

Cc1cc(O[C@H](C)C2CCOCC2)cc2c(=O)[nH]c(-c3cc4ccsc4cn3)nc12 [Compound 110-R, R-8-Methyl-6-[1-(tetrahydro-pyran-4-yl)-ethoxy]-2-thieno[2,3-c]pyridin-5-yl-3H-quinazolin-4-one] and Cc1cc(O[C@@H]2CC(=O)N(C)C2)cc2c(=O)[nH]c(-c3cc4sccc4cn3)nc12 [Compound 140-R, 8-Methyl-6-[(3R)-1-methyl-5-oxo-pyrrolidin-3-yl]oxy-2-thieno[3,2-c]pyridin-6-yl-3H-quinazolin-4-one] cannot be ordered by EC50: at most 0.1 µM for the first, at most 0.1 µM for the second.

Cc1cc(N2CCC3(CCOCC3)CC2)nc2c(=O)[nH]c(-c3cc4ccsc4cn3)nc12 [Compound 113] and Cc1cc(CC(=O)N2CCOCC2)cc2c(=O)[nH]c(-c3cc4sccc4cn3)nc12 [Compound 126, 8-Methyl-6-(2-morpholino-2-oxoethyl)-2-(thieno[3,2-c]pyridin-6-yl)quinazolin-4(3H)-one] cannot be ordered by EC50: 0.1 to 1 µM for the first, at most 0.1 µM for the second.

Cc1cc(CN2CCOCC2)cc2c(=O)[nH]c(-c3cc(C(F)(F)F)ccn3)nc12 [Compound 115, 8-methyl-6-(morpholinomethyl)-2-[4-(trifluoromethyl)-2-pyridyl]-3H-quinazolin-4-one hydrochloride] and Cc1cc(CCN2CCOCC2)cc2c(=O)[nH]c(-c3cc(C(F)(F)F)ccn3)nc12 [Compound 117, 8-methyl-6-(2-morpholinoethyl)-2-[4-(trifluoromethyl)-2-pyridyl]-3H-quinazolin-4-one hydrochloride] cannot be ordered by EC50: at most 0.1 µM for the first, at most 0.1 µM for the second.

Cc1cc(CCN2CCOCC2)cc2c(=O)[nH]c(-c3cc4cccn4cn3)nc12 [Compound 124, 8-Methyl-6-(2-morpholin-4-yl-ethyl)-2-pyrrolo[1,2-c]pyrimidin-3-yl-3H-quinazolin-4-one hydrochloride] and Cc1cc(C(=O)N2CCOCC2)cc2c(=O)[nH]c(-c3cc4cccn4cn3)nc12 [Compound 135, 8-Methyl-6-(morpholine-4-carbonyl)-2-pyrrolo[1,2-c]pyrimidin-3-yl-3H-quinazolin-4-one] cannot be ordered by EC50: at most 0.1 µM for the first, 0.1 to 1 µM for the second.

With Cc1cc(O[C@H]2CC(=O)N(C)C2)cc2c(=O)[nH]c(-c3cc4sccc4cn3)nc12 [Compound 140-S, 8-Methyl-6-[(3S)-1-methyl-5-oxo-pyrrolidin-3-yl]oxy-2-thieno[3,2-c]pyridin-6-yl-3H-quinazolin-4-one] the EC50 was at most 0.1 µM.
